According to US20160102052A1, “Use of Cysteamine in Treating Infections caused by Yeasts/Moulds” (priority 2014, published 2016):
Where two headings read alike, the source gives them in different places.

Test system: Exophiala dermatitidis CA01
Assay: Broth microdilution chequerboard analysis of Lynovex (NM001) in combination with clinical antifungals
Format: cell-based
Conditions: for MIC: Exophiala dermatitidis, CA01, 72 h, antifungal in isolation, read-out: Antifungal MIC100; for MIC / Antifungal MIC100 in Combination: 72 h; for MIC / Antifungal MIC100 in Combination / Antifungal MIC50 in Combination: 35° C.; for FICI: antifungal with Lynovex (NM001), <0.5 Synergy, 0.5-1 Additive, >1 Indifference; for Antifungal MIC100 in Combination / Antifungal MIC50 in Combination: in combination with Lynovex (NM001)
How it was run: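 CLSI chequerboard broth microdilution in RPMI-1640 combining doubling dilutions of Lynovex (NM001) with fluconazole, itraconazole, caspofungin or amphotericin B against E. dermatitidis CA01 conidia. Incubated at 35 °C in humid conditions, OD530 read at 72–144 h; FIC index from MIC100 at 72 h and MIC50 at later times.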

MIC (GEOMEAN): 250 µg/mL
MIC (MEAN): 250 µg/mL
MIC (Range): 250 µg/mL
Antifungal MIC100 in Combination (GEOMEAN): 25 µg/mL
Antifungal MIC50 in Combination (GEOMEAN, 96 h): 35 µg/mL
Antifungal MIC50 in Combination (GEOMEAN, 120 h): 44 µg/mL
Antifungal MIC50 in Combination (GEOMEAN, 144 h): 63 µg/mL
Antifungal MIC100 in Combination (MEAN): 34 µg/mL
Antifungal MIC50 in Combination (MEAN, 96 h): 51 µg/mL
Antifungal MIC50 in Combination (MEAN, 120 h): 59 µg/mL
Antifungal MIC50 in Combination (MEAN, 144 h): 98 µg/mL
Antifungal MIC100 in Combination (Range): 7.81 to 62.5 µg/mL
Antifungal MIC50 in Combination (Range, 96 h): 7.81 to 125 µg/mL
Antifungal MIC50 in Combination (Range, 120 h): 15.63 to 125 µg/mL
Antifungal MIC50 in Combination (Range, 144 h): 15.63 to 250 µg/mL
Compound: OC(Cn1cncn1)(Cn1cncn1)c1ccc(F)cc1F [Fluconazole]
FICI (GEOMEAN, MIC50, 96 h): 0.44 (6)
FICI (GEOMEAN, MIC50, 120 h): 0.41 (4)
FICI (GEOMEAN, MIC50, 144 h): 0.53 (4)
FICI (GEOMEAN, MIC100, 72 h): 0.42 (3)
FICI (MEAN, MIC50, 96 h): 0.45 (6)
FICI (MEAN, MIC50, 120 h): 0.42 (4)
FICI (MEAN, MIC50, 144 h): 0.55 (4)
FICI (MEAN, MIC100, 72 h): 0.43 (3)
